Reference: patent publication US5153180A, “Fluorinated nucleosides and process for treating retrovirus infections therewith” (priority 1990, dated 1992)
Like-named read-outs stand apart in the source and are kept apart here.

Tests used:
[1] = in vitro; settings: human, mt-4 cells
Method: (§1) Under in vitro conditions immortalized T-lymphocytes can be killed within few days by the cytopathic effect of HIV. […] For this purpose about 20,000 MT-4 cells (Harada et al. Science 229, 563 (1985)) Were infected with HIV (titer: 0.04 m.o.i.) and incubated in the presence or absence of varying concentrations of compounds according to formula I, with 10% fetal calf serum (FCS) in 200 μl RPMI medium. After 6 days of incubation the viable cells were counted that were excluded from trypan blue staining.

[2] = system: HIV; assay: Inhibition of the cytopathic effect of HIV on MT-4 cells; assay type: cell-based; settings: MT-4 cells, 6 days of incubation; for EC50: Human immunodeficiency virus 1, MT4, 144 h, read-out: 50% antiviral dose (ED50)
Method: as §1

[3] = target: T1, HIV-associated reverse transcriptase (HIV-RT) (Human immunodeficiency virus type 1 group M subtype B, UniProt P04585); assay: Inhibition of HIV-associated reverse transcriptase (polymerization of artificial templates); assay type: biochemical; design: efficacy against HIV-associated reverse transcriptase: dose or concentration left out as unconfirmed; settings: for IC50: read-out: ID50 HIV-RT
T1 construct: HIV-associated reverse transcriptase (HIV-RT)
From the text: At first the triphosphates of some compounds according to formula I were investigated for their ability to inhibit the polymerization of artificial templates (such as polyAoligodT and polyColigodG) catalyzed by HIV-associated reverse transcriptase (HIV-RT) according to the method described by A. D. Hoffman et al., Virology 147, 326, 1985. […] FdTTP, FdUTP and FdGTP are among the strongest inhibitors found so far for HIV-RT. In comparison the ID50 for 3'-azidothymidinetriphosphate was estimated under our conditions to be about […].

[4] = target: T2, cellular DNA polymerase α (Bos taurus, UniProt A0AAA9TD94); assay: Effect on cellular DNA polymerase α; assay type: biochemical; settings: enzyme purified from calf thymus; read-out: ID50 cellular polymerase α
T2 construct: purified from calf thymus; from tissue; host or cells: calf thymus
T2 sequence (A0AAA9TD94 1-1441): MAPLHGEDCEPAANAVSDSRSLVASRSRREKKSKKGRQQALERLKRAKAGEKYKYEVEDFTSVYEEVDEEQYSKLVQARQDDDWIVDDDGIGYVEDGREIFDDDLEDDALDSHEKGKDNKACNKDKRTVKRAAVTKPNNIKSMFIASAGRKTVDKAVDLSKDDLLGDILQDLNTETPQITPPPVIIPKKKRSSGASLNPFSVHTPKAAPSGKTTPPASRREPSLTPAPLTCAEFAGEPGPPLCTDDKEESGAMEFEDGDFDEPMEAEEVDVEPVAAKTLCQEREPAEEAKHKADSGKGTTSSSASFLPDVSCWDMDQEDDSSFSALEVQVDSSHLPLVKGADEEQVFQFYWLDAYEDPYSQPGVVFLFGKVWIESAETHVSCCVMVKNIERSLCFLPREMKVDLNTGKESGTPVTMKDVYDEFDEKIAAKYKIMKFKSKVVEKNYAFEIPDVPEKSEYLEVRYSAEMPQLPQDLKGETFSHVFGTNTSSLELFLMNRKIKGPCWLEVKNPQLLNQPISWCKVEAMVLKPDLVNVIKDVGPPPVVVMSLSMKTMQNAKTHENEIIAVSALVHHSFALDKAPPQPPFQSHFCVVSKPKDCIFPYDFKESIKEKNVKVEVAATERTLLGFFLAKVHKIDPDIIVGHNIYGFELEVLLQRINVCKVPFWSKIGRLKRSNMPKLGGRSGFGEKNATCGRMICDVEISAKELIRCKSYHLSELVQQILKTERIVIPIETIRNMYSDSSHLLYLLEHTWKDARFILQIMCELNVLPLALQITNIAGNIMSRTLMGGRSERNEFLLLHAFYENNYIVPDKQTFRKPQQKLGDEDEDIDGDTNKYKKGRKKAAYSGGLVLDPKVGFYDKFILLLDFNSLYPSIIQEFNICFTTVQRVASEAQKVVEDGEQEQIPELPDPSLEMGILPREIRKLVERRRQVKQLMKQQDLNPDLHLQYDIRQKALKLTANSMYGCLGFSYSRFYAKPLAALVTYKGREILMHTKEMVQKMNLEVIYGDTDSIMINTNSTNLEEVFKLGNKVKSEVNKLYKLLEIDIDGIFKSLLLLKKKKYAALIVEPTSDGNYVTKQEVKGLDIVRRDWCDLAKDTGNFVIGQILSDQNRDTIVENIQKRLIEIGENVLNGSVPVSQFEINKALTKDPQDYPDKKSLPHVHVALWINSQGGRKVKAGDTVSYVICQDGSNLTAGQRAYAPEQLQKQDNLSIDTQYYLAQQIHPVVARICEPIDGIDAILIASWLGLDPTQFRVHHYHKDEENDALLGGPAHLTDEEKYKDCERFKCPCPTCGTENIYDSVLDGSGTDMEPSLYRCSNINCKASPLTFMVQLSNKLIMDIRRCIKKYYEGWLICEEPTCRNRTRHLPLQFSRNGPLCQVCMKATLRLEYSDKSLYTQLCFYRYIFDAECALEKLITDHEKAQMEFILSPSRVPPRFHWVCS
From the text: (§2) The strong inhibiting effect of 3'-fluoro-substituted deoxynucleotides against HIV-reverse transcriptase can be utilized therapeutically only if the cellular DNA polymerases, especially the DNA polymerase α which is required for the replication of the cellular DNA, remain substantially unaffected. […] The ID50 values for the DNA polymerase β responsible for cellular DNA repair vary between 1,8-15 μm. Both enzymes cellular DNA polymerase α and β were purified from calf thymus and tested according to the method of E. Matthes et al., Biomed. Biochim. Acta 44. K63 (1985).

[5] = target: T3, cellular DNA polymerase β (Bos taurus, UniProt Q27958); assay: Effect on cellular DNA polymerase β; assay type: biochemical; settings: enzyme purified from calf thymus; read-out: ID50 cellular polymerase β
T3 construct: purified from calf thymus; from tissue; host or cells: calf thymus
From the text: as §2

[6] = target: T4, thymidine-phosphorylase from human spleen (Homo sapiens, UniProt P19971); assay: Phosphorolytic cleavage by thymidine-phosphorylase; assay type: in vitro ADME; settings: for metabolised at 3 h, 1000 µM: 1 mM, within 3 hours, read-out: extent of cleavage by thymidine-phosphorylase
T4 construct: thymidine-phosphorylase from human spleen; from tissue; host or cells: human spleen
T4 sequence (P19971 11-482): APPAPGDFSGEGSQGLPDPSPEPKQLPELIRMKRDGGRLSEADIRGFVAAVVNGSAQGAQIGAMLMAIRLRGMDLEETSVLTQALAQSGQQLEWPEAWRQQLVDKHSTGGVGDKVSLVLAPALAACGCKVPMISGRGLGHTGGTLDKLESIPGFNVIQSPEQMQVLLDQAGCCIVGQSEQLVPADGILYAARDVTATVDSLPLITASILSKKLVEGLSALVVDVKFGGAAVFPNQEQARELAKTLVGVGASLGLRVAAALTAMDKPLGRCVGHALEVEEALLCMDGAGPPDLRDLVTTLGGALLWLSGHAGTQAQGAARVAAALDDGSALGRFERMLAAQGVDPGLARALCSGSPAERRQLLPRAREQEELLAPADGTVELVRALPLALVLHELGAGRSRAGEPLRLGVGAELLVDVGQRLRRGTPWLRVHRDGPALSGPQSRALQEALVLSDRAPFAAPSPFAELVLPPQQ
From the text: Therefore FTdR, FddBrUrd and FddFUrd were investigated for their ability to be cleaved by thymidine-phosphorylase from human spleen.

[7] = concentration required for 50% inhibition

Row | EC50 [2] | Structure (SMILES) | CC50 at 144 h [1] | other results
1 | > 500 µM | O=c1[nH]c(=O)n([C@H]2C[C@H](F)[C@@H](CO)O2)cc1CO [FddHMUrd, 2'-3'-dideoxy-3'-fluoro-5-hydroxymethyluridine] | > 500 µM | 
2 |  | Cc1cn([C@H]2C[C@H](Cl)[C@@H](COP(=O)(O)OP(=O)(O)OP(=O)(O)O)O2)c(=O)[nH]c1=O [3'-chloro-2',3'-dideoxythymidine triphosphate, reference compound] |  | efficacy against HIV-associated reverse transcriptase [3]: completely ineffective
3 | 125 µM | Cc1cn([C@H]2C[C@H](F)[C@@H](CO)O2)c(=O)nc1N [FddMCyt, 2'-3'-dideoxy-3'-fluoromethylcytidine] | 125 µM | 
4 | > 100 µM | Nc1ccn([C@@H]2O[C@H](CO)[C@@H](F)[C@@H]2O)c(=O)n1 [FaraC, 3'-deoxy-3'-fluoroarabinosylcytosine] | > 100 µM | 
5 | 5 µM | Nc1nc2c(ncn2[C@H]2C[C@H](F)[C@@H](CO)O2)c(=O)[nH]1 [FddGuo, 2'-3'-dideoxy-3'-fluoroguanosine] | 250 µM | 
6 | > 500 µM | O=c1ccn([C@@H]2O[C@H](CO)[C@@H](F)[C@@H]2O)c(=O)[nH]1 [FaraU, 3'-deoxy-3'-fluoroarabinosyluracil] | > 500 µM | 
7 |  | Nc1nc2c(ncn2[C@H]2C[C@H](F)[C@@H](COP(=O)(O)OP(=O)(O)OP(=O)(O)O)O2)c(=O)[nH]1 [FdGTP, 2'-3'-dideoxy-3'-fluoroguanosine-5'-triphosphate] |  | IC50 [4]: > 200 µM; IC50 [3, 7]: 50 nM; IC50 [5]: 1.8 µM
8 |  | Cc1cn([C@H]2C[C@H](N=[N+]=[N-])[C@@H](CO[P@](=O)(O)O[P@](=O)(O)OP(=O)(O)O)O2)c(=O)[nH]c1=O [3'-azidothymidinetriphosphate, reference compound] |  | IC50 ([3]; estimated under our conditions): ~50000 nM
9 |  | O=c1ccn([C@H]2C[C@H](F)[C@@H](COP(=O)(O)OP(=O)(O)OP(=O)(O)O)O2)c(=O)[nH]1 [FdUTP, 2'-3'-dideoxy-3'-fluorouridine-5'-triphosphate] |  | IC50 [4]: > 200 µM; IC50 [3, 7]: 70 nM; IC50 [5]: 3 µM
10 | > 500 µM | CCc1cn([C@H]2C[C@H](F)[C@@H](CO)O2)c(=O)[nH]c1=O [FddEtUrd, 2'-3'-dideoxy-3'-fluoro-5-ethyluridine] | > 500 µM | 
11 |  | O=c1[nH]c(=O)n([C@H]2C[C@H](F)[C@@H](CO)O2)cc1F [FddFUrd, 2'-3'-dideoxy-3'-fluoro-5-fluorouridine] | > 200 µM | metabolised at 3 h, 1000 µM [6]: 3 to 8%; 50% antiviral dose (ED50) [2]: not detectable
12 |  | N#Cc1cn([C@H]2C[C@H](F)[C@@H](CO)O2)c(=O)[nH]c1=O [FddCNUrd, 2'-3'-dideoxy-3'-fluoro-5-cyanouridine] | > 500 µM | 50% antiviral dose (ED50) [2]: not detectable
13 | 6 µM | Nc1nc(N)c2ncn([C@H]3C[C@H](F)[C@@H](CO)O3)c2n1 [FddDAPR, 2'-3'-dideoxy-3'-fluoro-2,6-diaminopurineriboside] | 480 µM | 
14 | > 100 µM | Nc1ncnc2c1ncn2[C@H]1C[C@H](F)[C@@H](CO)O1 [FddAdo, 2'-3'-dideoxy-3'-fluoroadenosine] | 75 µM | 
15 | 25 µM | Nc1ccn([C@H]2C[C@H](F)[C@@H](CO)O2)c(=O)n1 [FddCyt, 2'-3'-dideoxy-3'-fluorocytidine] | 62 µM | 
16 |  | CCc1cn([C@H]2C[C@H](F)[C@@H](COP(=O)(O)OP(=O)(O)OP(=O)(O)O)O2)c(=O)[nH]c1=O [Compound F5EtdUTP, 2'-3'-dideoxy-3'-fluoro-5-ethyluridine-5'-triphphosphate] |  | IC50 [4]: 10 µM; IC50 [3, 7]: 7500 nM; IC50 [5]: 4 µM
17 | > 100 µM | O=c1[nH]c(=O)n([C@@H]2O[C@H](CO)[C@@H](F)[C@@H]2O)cc1Br [FaraBrU, 3'-deoxy-3'-fluoroarabinosyl-5-bromouracil] | > 100 µM | 
18 |  | O=c1[nH]c(=O)n([C@H]2C[C@H](F)[C@@H](COP(=O)(O)OP(=O)(O)OP(=O)(O)O)O2)cc1F [Compound F5FdUTP, 2'-3'-dideoxy-3'-fluoro-5-fluorouridine-5'-triphosphate] |  | IC50 [4]: > 200 µM; IC50 [3, 7]: 450 nM; IC50 [5]: 15 µM
19 |  | Cc1cn([C@H]2C[C@H](O)[C@@H](CO)O2)c(=O)[nH]c1=O [thymidine, reference compound] |  | metabolised at 2 h [6]: 90%

Row | Structure (SMILES) | EC50 [2] | CC50 at 144 h [1] | other results
20 | O=c1[nH]c(=O)n([C@H]2C[C@H](F)[C@@H](CO)O2)cc1Br [FddBrUrd, 2'-3'-dideoxy-3'-fluoro-5-bromouridine] | 5 µM | 190 µM | metabolised at 3 h, 1000 µM [6]: 3 to 8%
